Biological target: T1, Bcl-2 protein (Recombinant Human Bcl-2 Protein) (Homo sapiens, UniProt P10415)
T1 construct: purchased Novus NBP2-34889
Experiment: Binding evaluation of mixture library compounds to Bcl-2 using AS-MS (affinity selection mass spectrometry)
In short: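 Affinity selection MS: Bcl-2 20 μM + 1200-cpd mixture, […]/cpd, Tris pH 7.4 buffer w/ Tween-20, DTT; 1 h 23° C dark; P-2 spin SEC; MeCN/MeOH extraction; RP LC/MS. ASMS Ratio(%) = (A−C)/B×100.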

T1 sequence (P10415 whole entry): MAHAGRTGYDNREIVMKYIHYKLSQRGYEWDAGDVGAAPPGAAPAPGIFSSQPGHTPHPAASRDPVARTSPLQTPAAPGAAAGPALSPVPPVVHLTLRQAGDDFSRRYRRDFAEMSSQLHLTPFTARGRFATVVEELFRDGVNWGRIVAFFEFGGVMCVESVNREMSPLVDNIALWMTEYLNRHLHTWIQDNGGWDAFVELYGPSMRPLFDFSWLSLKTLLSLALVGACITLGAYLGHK

SMILES	ASMS ratio (%) (n = 1)	ASMS ratio (%) (n = 2)
CCOc1cncc(-c2ccccc2CN2CCN(c3ccc(C(=O)NS(=O)(=O)c4ccc(NCCSc5ccccc5)c(C(F)(F)F)c4)nn3)CC2)c1 [B2R072-01, 6-[4-[[2-(5-Ethoxypyridin-3-yl)phenyl]methyl]piperazin-1-yl]-N-[4-(2-phenylsulfanylethylamino)-3-(trifluoromethyl)phenyl]sulfonylpyridazine-3-carboxamide]	21.4%	11.4%
CCOc1cccc(-c2ccc(CN3CCN(c4ccc(C(=O)NS(=O)(=O)c5ccc(NCCSc6ccccc6)c(C(F)(F)F)c5)nn4)CC3)cc2C)c1 [B2R073-01, 6-[4-[[4-(3-Ethoxyphenyl)-3-methylphenyl]methyl]piperazin-1-yl]-N-[4-(2-phenylsulfanylethylamino)-3-(trifluoromethyl)phenyl]sulfonylpyridazine-3-carboxamide]	24.0%	0.0%
CCOc1cccc(-c2ccc(CN3CCN(c4ccc(C(=O)NS(=O)(=O)c5ccc(NCCSc6ccccc6)c(C(F)(F)F)c5)nn4)CC3)c(CC)c2)c1 [B2R075-01, 6-[4-[[4-(3-Ethoxyphenyl)-2-ethylphenyl]methyl]piperazin-1-yl]-N-[4-(2-phenylsulfanylethylamino)-3-(trifluoromethyl)phenyl]sulfonylpyridazine-3-carboxamide]	8.6%	0.0%
CCOc1cncc(-c2ccc(CN3CCN(c4ccc(C(=O)NS(=O)(=O)c5ccc(NCCSc6ccccc6)c(C(F)(F)F)c5)nn4)CC3)c(CC)c2)c1 [B2R076-01, 6-[4-[[4-(5-Ethoxypyridin-3-yl)-2-ethylphenyl]methyl]piperazin-1-yl]-N-[4-(2-phenylsulfanylethylamino)-3-(trifluoromethyl)phenyl]sulfonylpyridazine-3-carboxamide]	3.9%	19.7%
CCOc1cccc(-c2ccc(CN3CCN(c4ccc(C(=O)NS(=O)(=O)c5ccc(NCCSc6ccccc6)c(C(F)(F)F)c5)nn4)CC3)cc2F)c1 [B2R077-01, 6-[4-[[4-(3-Ethoxyphenyl)-3-fluorophenyl]methyl]piperazin-1-yl]-N-[4-(2-phenylsulfanylethylamino)-3-(trifluoromethyl)phenyl]sulfonylpyridazine-3-carboxamide]	0.0%	0.0%
CCOc1cncc(-c2ccc(CN3CCN(c4ccc(C(=O)NS(=O)(=O)c5ccc(NCCSc6ccccc6)c(C(F)(F)F)c5)nn4)CC3)cc2F)c1 [B2R078-01, 6-[4-[[4-(5-Ethoxypyridin-3-yl)-3-fluorophenyl]methyl]piperazin-1-yl]-N-[4-(2-phenylsulfanylethylamino)-3-(trifluoromethyl)phenyl]sulfonylpyridazine-3-carboxamide]	15.8%	11.7%
CCOc1cncc(-c2ccc(CN3CCN(c4ccc(C(=O)NS(=O)(=O)c5ccc(NCCSc6ccccc6)c(C(F)(F)F)c5)nn4)CC3)c(OC)c2)c1 [B2R080-01, 6-[4-[[4-(5-Ethoxypyridin-3-yl)-2-methoxyphenyl]methyl]piperazin-1-yl]-N-[4-(2-phenylsulfanylethylamino)-3-(trifluoromethyl)phenyl]sulfonylpyridazine-3-carboxamide]	16.7%	21.2%
CCOc1cccc(-c2cc(CN3CCN(c4ccc(C(=O)NS(=O)(=O)c5ccc(NCCSc6ccccc6)c(C(F)(F)F)c5)nn4)CC3)cc(OCC)c2)c1 [B2R081-01, 6-[4-[[3-Ethoxy-5-(3-ethoxyphenyl)phenyl]methyl]piperazin-1-yl]-N-[4-(2-phenylsulfanylethylamino)-3-(trifluoromethyl)phenyl]sulfonylpyridazine-3-carboxamide]	21.1%	−8.8%
CCOc1cncc(-c2cc(CN3CCN(c4ccc(C(=O)NS(=O)(=O)c5ccc(NCCSc6ccccc6)c(C(F)(F)F)c5)nn4)CC3)cc(OCC)c2)c1 [B2R082-01, 6-[4-[[3-Ethoxy-5-(5-ethoxypyridin-3-yl)phenyl]methyl]piperazin-1-yl]-N-[4-(2-phenylsulfanylethylamino)-3-(trifluoromethyl)phenyl]sulfonylpyridazine-3-carboxamide]	0.0%	0.0%
CCOc1cccc(-c2cc(CN3CCN(c4ccc(C(=O)NS(=O)(=O)c5ccc(NCCSc6ccccc6)c(C(F)(F)F)c5)nn4)CC3)cc(OC(C)C)c2)c1 [B2R083-01, 6-[4-[[3-(3-Ethoxyphenyl)-5-propan-2-yloxyphenyl]methyl]piperazin-1-yl]-N-[4-(2-phenylsulfanylethylamino)-3-(trifluoromethyl)phenyl]sulfonylpyridazine-3-carboxamide]	31.9%	−11.1%
CCOc1cncc(-c2cc(OC)c(CN3CCN(c4ccc(C(=O)NS(=O)(=O)c5ccc(NCCSc6ccccc6)c(C(F)(F)F)c5)nn4)CC3)c(OC)c2)c1 [B2R086-01]	0.0%	0.0%
CCOc1cccc(-c2cc(CN3CCN(c4ccc(C(=O)NS(=O)(=O)c5ccc(NCCSc6ccccc6)c(C(F)(F)F)c5)nn4)CC3)cc(C(F)(F)F)c2)c1 [B2R087-01, 6-[4-[[3-(3-Ethoxyphenyl)-5-(trifluoromethyl)phenyl]methyl]piperazin-1-yl]-N-[4-(2-phenylsulfanylethylamino)-3-(trifluoromethyl)phenyl]sulfonylpyridazine-3-carboxamide]	3.8%	7.1%
CCOc1cncc(-c2cc(CN3CCN(c4ccc(C(=O)NS(=O)(=O)c5ccc(NCCSc6ccccc6)c(C(F)(F)F)c5)nn4)CC3)cc(C(F)(F)F)c2)c1 [B2R088-01, 6-[4-[[3-(5-Ethoxypyridin-3-yl)-5-(trifluoromethyl)phenyl]methyl]piperazin-1-yl]-N-[4-(2-phenylsulfanylethylamino)-3-(trifluoromethyl)phenyl]sulfonylpyridazine-3-carboxamide]	35.3%	13.1%
CCOc1cccc(-c2cc(CN3CCN(c4ccc(C(=O)NS(=O)(=O)c5ccc(NCCSc6ccccc6)c(C(F)(F)F)c5)nn4)CC3)cc(OC(F)(F)F)c2)c1 [B2R089-01]	3.4%	−9.2%
CCOc1cncc(-c2cc(CN3CCN(c4ccc(C(=O)NS(=O)(=O)c5ccc(NCCSc6ccccc6)c(C(F)(F)F)c5)nn4)CC3)cc(OC(F)(F)F)c2)c1 [B2R090-01, 6-[4-[[3-(5-Ethoxypyridin-3-yl)-5-(trifluoromethoxy)phenyl]methyl]piperazin-1-yl]-N-[4-(2-phenylsulfanylethylamino)-3-(trifluoromethyl)phenyl]sulfonylpyridazine-3-carboxamide]	22.4%	5.3%

Reference: patent US20240132431A1, “METHOD FOR ALKYLATING ACIDIC FUNCTIONAL GROUP” (Chugai Seiyaku Kabushiki Kaisha, priority 2021, published 2024)
